Measurements taken from ChEMBL document CHEMBL1201862, “PubChem BioAssay data set” (2004).
“And” between values parts separate entries of the source, which are not always exact repeats. Identical values can stand only once.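 Five compound concentrations were applied to cells in 96-well plates for 48 hours; endpoints were derived by simple linear interpolation of the resulting dose-response curve. GI50 marks 50% less growth.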 The source made the active and inactive calls. Rule as the data show it: active = GI50 up to about 1.1 µM and inactive = higher.

How the values were obtained:
Assay in all cases: DTP human tumour cell line panel, 48 h
[1] = test system: A498
[2] = test system: A549
[3] = test system: ACHN
[4] = test system: CAKI-1
[5] = test system: HCT-116
[6] = test system: HOP-62
[7] = test system: HOP-92
[8] = test system: LOX IMVI
[9] = test system: M14
[10] = test system: NCI/ADR-RES
[11] = test system: OVCAR-8
[12] = test system: PC-3
[13] = test system: SF-268
[14] = test system: SNB-19
[15] = test system: SNB-75
[16] = test system: UO-31
[17] = test system: Malme-3M
[18] = test system: SK-MEL-28
[19] = test system: SN12C
[20] = test system: SR

Measured: GI50

O=NC1c2cccc3cccc(c23)C1N=O (stereo unspecified)
inactive: [1] 17.5 µM | [2] 2.43 µM | [3] 1.72 µM | [4] 2.77 µM | [5] 1.34 µM | [6] 5.26 µM | [7] 7.11 µM | [8] 1.59 µM | [9] 12 µM | [10] 2.39 µM | [11] 2.07 µM | [12] 10.1 µM | [13] 10.2 µM | [14] 11.8 µM | [15] 9.79 µM | [16] 2.76 µM

Cn1cnc([N+](=O)[O-])c1Sc1nccn1-c1cccc2ccccc12
inactive: [1] 32.7 µM | [2] 35 µM | [3] 26.4 µM | [4] 30.9 µM | [5] 19.7 µM | [6] > 100 µM | [7] 15.3 µM | [8] 13.6 µM | [9] 18.8 µM | [17] 13.7 µM | [11] 20.8 µM | [13] 24.8 µM | [18] 22.5 µM | [19] 31.7 µM | [14] 94 µM | [15] 29.9 µM | [20] 15.8 µM | [16] 16.7 µM

COc1cc2c(c(OC)c1)C(=O)C(=O)C(CC1(C)OCCCO1)=C2
inactive: [1] 17.2 µM | [2] 10.9 µM | [3] 6.61 µM | [4] 5.43 µM | [5] 4.38 µM | [6] 17.5 µM | [7] 1.89 µM | [8] 5.01 µM | [9] 12 µM | [17] 8.2 µM | [11] 11.5 µM | [13] 14.7 µM | [18] 15.2 µM | [19] 13.2 µM | [14] 22.2 µM | [15] 19.5 µM | [20] 3.3 µM | [16] 12.7 µM

CC(=O)Oc1ccc2cc(Oc3cc(Cl)c(Cl)cc3Cl)c(=O)oc2c1
inactive: [1] 17.7 µM | [2] 16.4 µM | [3] 22.9 µM | [4] 18 µM | [5] 14.9 µM | [6] 17.3 µM | [7] 17.8 µM | [8] 15.4 µM | [9] 18.2 µM | [17] 15.3 µM | [11] 17.1 µM | [12] 16.1 µM | [13] 26.9 µM | [18] 26.2 µM | [19] 14.6 µM | [14] 29.6 µM | [15] 19.6 µM | [20] 19.8 µM | [16] 13.1 µM

Cn1cc2ccccc2c1-c1nc(F)nc(OCC(=O)[C@H]2CCC3[C@@H]4CCC5=CC(=O)CC[C@]5(C)C4[C@@H](O)C[C@@]32C)n1 (stereo partly specified)
inactive: [1] 17.3 µM | [2] 32.4 µM | [3] 17.7 µM | [4] 3.92 µM | [5] 11.1 µM | [6] 22 µM | [7] 19.8 µM | [8] 4.66 µM | [9] 20.3 µM | [17] 18.9 µM | [11] 7.13 µM | [13] 13.1 µM | [18] 11.2 µM | [19] 15.7 µM | [14] 19.4 µM | [15] 19 µM | [20] 2.86 µM | [16] 19.6 µM

COC(=O)c1c2cccccc-2c(Cc2c3cccccc-3c(C(=O)OC)c2O)c1O
inactive: [1] > 100 µM | [2] > 100 µM | [3] > 100 µM | [4] > 100 µM | [5] > 100 µM | [6] > 100 µM | [7] > 100 µM | [8] > 100 µM | [9] > 100 µM | [17] > 100 µM | [11] > 100 µM | [13] > 100 µM | [18] > 100 µM | [19] > 100 µM | [14] > 100 µM | [15] 86.5 µM | [20] > 100 µM | [16] > 100 µM

COc1ccc2[nH]c3c4c(cc(-c5ccccc5)c3c2c1)C(=O)N(c1ccccc1)C4=O
inactive: [1] > 45.6 µM | [2] 13.8 µM | [3] > 41.5 µM | [4] 27 µM | [5] 29.2 µM | [6] 14.2 µM | [7] 17.6 µM | [8] 16.1 µM | [9] 19.3 µM | [17] 20.4 µM | [11] 6.05 µM | [13] 23.1 µM | [18] 37.9 µM | [19] 21.5 µM | [14] 23.6 µM | [15] 6.3 µM | [20] 1.77 µM | [16] 28.5 µM

O=C1CC(c2ccc(O)cc2)C2(O1)C(=O)OC(C(O)CO)C2O (stereo unspecified)
inactive: [1] > 100 µM | [3] > 100 µM | [4] > 100 µM | [5] > 100 µM | [6] > 100 µM | [8] > 100 µM | [9] > 100 µM | [17] 96.2 µM | [10] > 100 µM | [11] > 100 µM | [12] > 100 µM | [13] > 100 µM | [18] > 100 µM | [19] > 100 µM | [14] > 100 µM | [15] > 100 µM | [16] > 100 µM

COc1ccc(/C=C2/N/C(=N\N=C/C(O)C(O)C(O)CO)NC2=O)cc1 (stereo unspecified)
inactive: [2] > 100 µM | [3] > 100 µM and 89.5 µM | [4] > 100 µM | [5] > 100 µM | [7] 48.3 µM and 42.6 µM | [8] > 100 µM | [9] 51.8 µM | [17] > 100 µM | [10] > 100 µM | [11] > 100 µM | [13] 57.5 µM | [19] > 100 µM | [20] > 100 µM | [16] > 100 µM

CN(C)CCS/C(=N\c1ccccc1)N1C=COC=C1
inactive: [1] > 100 µM | [2] > 100 µM | [3] 34.1 µM | [4] > 33.3 µM | [5] 23.6 µM | [6] > 100 µM | [7] 26.2 µM | [8] 16 µM | [9] 18 µM | [17] 33.7 µM | [11] 37.5 µM | [12] 34.4 µM | [13] 15.8 µM | [18] 19.5 µM | [19] 27.5 µM | [14] > 100 µM | [15] > 78.7 µM | [20] 68.9 µM | [16] 57.3 µM

FC(F)(F)c1ccc2nc(Sc3ccc4ccccc4c3)cnc2c1
inactive: [1] 28.6 µM | [2] > 100 µM | [3] > 100 µM | [4] 50.2 µM | [5] 46 µM | [6] 74.8 µM | [7] > 100 µM | [8] 44.1 µM | [9] 87.9 µM | [17] > 100 µM | [10] 60 µM | [11] > 100 µM | [13] > 100 µM | [18] > 100 µM | [19] 73.8 µM | [14] > 100 µM | [15] > 100 µM | [16] > 100 µM

CCSCCCSCCSCC
inactive: [2] > 100 µM | [5] > 100 µM | [6] > 100 µM | [8] > 100 µM | [9] > 100 µM | [11] > 100 µM | [12] > 100 µM | [13] > 100 µM | [18] > 100 µM | [19] > 100 µM | [14] > 100 µM | [15] > 100 µM | [16] > 100 µM
